From US10266545B2, “Coumarin derivative as antiviral agent, pharmaceutical composition thereof, its preparation and use” (I-NOVA MEDICINSKA ISTRAZIVANJA D.O.O., priority 2016, dated 2019)

Tests used:
[1] = molecular target: T1, rRT (exogenous recombinant RT) (Human immunodeficiency virus type 1 group M subtype B, UniProt P03366); assay: Direct effect on exogenous recombinant RT (rRT), HS-Lenti RT activity kit; type: biochemical, HIV-1; conditions: for inhibition at 10 µM: 0.01 mM
T1 construct: recombinant RT was added with a known activity and concentration; purchased Cavidi (Sweden) 52010
Experimental: The RT test was performed by using HS-Lenti RT activity kit test provided by Cavidi (Sweden) for direct study of inhibitory effect of rRT. HS-Lenti RT activity assay provides an opportunity for direct determination of the effects of the test compound 1 and the control compound 2 on the activity of rRT, of known concentrations. […] Such opportunity is provided by the test kit manufacturer, see literature reference 10: • 10) X. Shao, D. Ekstrand, R. Bhikhabhai, C. Kallander, J. Gronowitz: A non-radioactive microtitre plate reverse transcriptase (RT) assay, based on immobilized template, for screening of RT activity inhibitors and evaluation of the mode of action, Antiviral Chem. Chemother. 8 (1997) 149-159.
For the control, commonly used substance with proven antiviral activity was employed; in our case, we used Kivexa, which contains 600 mg Abacavir and 300 mg of Lamivudine, which is applied in clinical practice as nucleoside inhibitor of RT. In the presence of RT inhibition in the test, it is concluded that not only the replication of the virus is inhibited, but also probably the target of the inhibitory effect is RT itself. To confirm this conclusion, it is necessary that percentage (%) of inhibition of the RT coincides with the % inhibition in the microtiter MTT assay. […] After incubation, we determined whether the activity of the enzyme shall be amended (inhibited) by action of the compounds 1 or 2. […]
The procedure was as follows: In wells of a company plate coated with a matrix poly-rA, are added reaction mixture to RT, the primer containing oligo-dT, Brd UTP as a source of dNTP and prepared at buffer of the commercial test 10× more concentrated (as reaction mixture was in a volume of 100 μl) of the test substance dilutions. […] Manifestation of the enzyme reaction was carried out using a suitable substrate for alkaline phosphatase for 30 minutes and then the absorbance was detected at a wavelength of 405 nm. […]

[2] = Cytotoxicity (MNC, CC50) by MTT assay on uninfected MT-4 cell line; type: cell-based; conditions: human; MT-4 cells, 72 h, MTT; read-out: CC50 (cytotoxic concentration for 50% cells)
Experimental: (§1) Cell viability was estimated by a modification of the 3-(4,5-dimethylthiazol-2-yl)-2,5-diphenyltetrazolium bromide (MTT) assay, which is described in the literature reference 9: • 9) T. Mosmann: Rapid colorimetric assay for cellular growth and survival: Application to proliferation and cytotoxicity assays, J. Immunol.
(§2) Both MNC and CC50 values were evaluated simultaneously by morphological and by cell survival criteria. We used MTT-test, determining the living and early apoptotic cells.
(§3) The cells in the suspension culture are growing in clusters. […] Cells were passaged 1:3-1:5 at a density around 6-8·10^4 cells/ml, while the passage was re-suspended repeatedly.
(§4) Cell viability was estimated by a modification of the 3-(4,5-dimethylthiazol-2-yl)-2,5-diphenyltetrazolium bromide (MTT) assay, which is described in the reference 9.
(§5) Since the cell culture we have worked with were suspension, a solution of poly-L-lysine (PLL; Mw=90,000; Sigma-Aldrich, USA) was used for cell attachment on the bottom of a 96-well plate. The plates were treated with 100 μl of PLL at a concentration of 50 μg/ml in phosphate buffered saline (PBS; Sigma-Aldrich, USA), pH=7.4, then incubated for 1 h at room temperature. Followed aspiration of PLL solution and washing the plate twice with sterile PBS. Cells were then seeded at a concentration of 7-8·10^4 cells/100 μl for all experiments. Since the final volume of the culture medium in each well was 200 μl, additional 100 μl of 10% FBS (containing no cells) was added. For the purpose of the experiment, there was no need of forming a dense cell monolayer and after 24 h, when the adherent cells were stick to the plastic, the supernatant was decanted and adding 50 μl of previously prepared dilution of test compound. The well was completed with culture medium (150 μl) to a final volume of 200 μl. The plate was incubated at 37° C. and 5% content of CO2 for 3 days (72 h). Cells grown in medium without the test compound served as a control.
(§6) After 72 h incubation, the medium was replaced with MTT (Sigma Aldrich, USA) and dissolved at a final concentration of 5 mg/ml in serum-free medium, for further 3 h incubation. Then, the MTT-formazan product was solubilised in ethanol/dimethyl sulfoxide (DMSO; Sigma-Aldrich, USA) (1:1, V/V), and the optical density was measured at a test wavelength of 540 nm. Each experiment was performed in triplicate.
(§7) Cell viability was reported as the percentage (%) of viable cells in the wells treated with different concentrations of the test substance compared to the control cells untreated with the substances.

[3] = tested on: MT-4 cells; assay: as above; type: cell-based; conditions: for MNC (maximal non-toxic concentration): MT-4 cells, MTT
Experimental: as §1, §2, §3, §4, §5, §6, §7

[4] = 72 h, highest concentration of 100 mM, could be due to DMSO
[5] = 72 h after treatment, concentration range from 10 mM to 0.01 mM

O=c1oc2cc(O)cc(O)c2c(O)c1-c1coc2c1c(=O)oc1cc(O)cc(O)c12 [Compound 1, 7,9-dihydroxy-3-(4,5,7-trihydroxy-2-oxo-2H-chromene-3-yl)-4H-furo[3,2-c]chromen-4-one]
inhibition at 5 µM ([1]; 0.005 mM): 0%
inhibition at 10 µM [1]: 72.8%
CC50 at 72 h [2]: 10 mM
microscopic observation of the morphology of the monolayer [3, 4]: some morphology changes
microscopic observation of the morphology of the monolayer [3, 5]: typical cytopathology characterizing toxic effects were not registered
MNC (maximal non-toxic concentration) ([3]; 72 h): 0.01 mM

O=c1oc2cc(O)c(O)cc2c(O)c1-c1coc2c1c(=O)oc1cc(O)c(O)cc12 [Compound 2, 7,8-dihydroxy-3-(4,6,7-trihydroxy-2-oxo-2H-chromen-3-yl)-4H-furo[3,2-c]chromen-4-one, reference compound]
inhibition at 10 µM [1]: 0%
CC50 at 72 h [2]: 10 mM
microscopic observation of the morphology of the monolayer [3, 4]: some morphology changes
microscopic observation of the morphology of the monolayer [3, 5]: typical cytopathology characterizing toxic effects were not registered
MNC (maximal non-toxic concentration) ([3]; 72 h): 0.01 mM
